# Experimental data as given in patent US20070293422A1, “Beta-Amyloid Inhibitors and Use Thereof” (priority 2003, published 2007).
# Assays:
# [1] = test system: PC12 cells; assay type: cell-based
# Experimental: Amyloid fibrils are cytotoxic, inducing cell death by apoptosis (Levine et al., 1993). The ability of the compounds of the invention in preventing the amyloid formation can be evaluated by measuring the decrease in the amyloid fibrils cytotoxicity in a cell assay. Toxicity was measured by comparing the effects of samples of Ab1-42 (SEQ ID NO: 11) alone or of mixtures of Ab1-42 combined with the peptides of the invention, on the reduction of the redox active dye, 3-(4,5-dimethylthiazol-2-yl)-2,5-diphenyltetrazolium bromide (MTT) by PC12 cells. […] The cells are incubated for 24 h and thereafter the cellular viability was evaluated using the MTT kit (Kit I (MTT), No. 1 465 007 Roche, Mannheim, Germany). Levels of reduced MTT are determined by measuring the difference in absorbance at 595 and 650 nm using a microplate reader and the extend of cellular viability is then deduced Maximum fibril inhibition is obtained at a peptide concentration of 8 mM for the reference compound of SEQ ID NO: 5 in the fibrillogenesis assay described above. […] Cellular viability is then measured for peptides of the invention by adding the fibrillogenesis assay mixtures containing 1 mM of peptide of the invention (concentration where maximum fibril inhibition is obtained for peptides of the invention) to the PC12 cells after a 20-fold dilution. […]
# [2] = target: T1, Aβ1-42 (SEQ ID NO: 11) (Homo sapiens, UniProt P05067); test: Thioflavine T fluorescence assay of Aβ1-42 amyloid fibril formation (fibrillogenesis assay); assay type: biochemical
# T1 construct: purchased BACHEM H-1368.1000
# Experimental: The percentage of formed fibrils after 2 days incubation with 110 μM of Aβ1-42 (SEQ ID NO: 11) at 37° C. is represented versus the concentration of the peptides of the invention (in μM). 100% of formed fibrils correspond to the fibrils formed in presence of Aβ1-42 alone. Triangles represent data for pAntp (SEQ ID NO: 4) and squares represent data for pAntp-BSB1 (SEQ ID NO: 6). The percentage of formed fibrils for peptides of the invention is compared to that obtained for a known beta-sheet breaker, BSB1 of SEQ ID NO: 5 (Lozenges). Data are the result of three independent experiments in duplicate.
# Amyloid formation can be quantitatively evaluated by the fluorescence emission of thioflavine T (ThT) bound to amyloid fibrils, as reported by Levine et al., 1993 and also Soto et al., 1995.
# In this assay, peptides of the invention were solubilized in water at different concentration in small Eppendorff tubes and lyophilized.
# Ab1-42 (a synthetic peptide with the same sequence as the one deposited in the amyloid plaques in Alzheimer's brain, SEQ ID NO: 11) was solubilized at the concentration of 1 mg/ml in 2 mM NaOH. Aliquots were lyophilized (storage −80° C.). Several aliquots of Ab1-42 at a concentration of 0.5 mg/ml ([…]) were prepared in 0.1M Tris, pH 7.4 and incubated for 2 or 5 days at 37° C. in the absence or in the presence of different concentrations of the pre-lyophilized peptides of the invention (ranged from […]). Thioflavin T was purchased from Sigma (T-3516). For example, 120 μg of Ab1-42 and mixed to 1 μl of DMSO and 239 μl of 0.1M Tris, pH 7.4. From this solution, 120 μl are incubated 5 days at 37° C. and 120 μl are used to solubilize the peptide of the invention at the desired concentration and incubated 5 days at 37° C.
# At the end of the incubation period, 50 mM Glycine, pH 9.2 and 2 μM ThT are added to the incubated mixture described above in a final volume of […] (850 μl of pure water, 200 μl of 50 mM Glycine, pH 9.2 and 40 μl of Thioflavin T (1 mM in pure water) are added to 60 μl of sample.
# Fluorescence is measured at excitation 435 nm and emission 485 nm in a Perkin Elmer, model LS50B fluorescence spectrometer. Measurements are carried out after the signal is stable for at least 1-2 min. The initial value of fluorescence represents the fluorescence obtained with Ab1-42 peptide alone (highest concentration of fibrils) representing 100% of formed fibrils.
# The percentage of inhibition of Ab1-42 fibril formation induced by compounds of the invention can be calculated using an analytical method such as described in Soto et al., 1998.
# T1 sequence (P05067 672-713): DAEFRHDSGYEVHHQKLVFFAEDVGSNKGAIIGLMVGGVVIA
Compound,"inhibiting effect on beta-amyloid cellular toxicity compared with BSB1 ([1]; PC12 cells, MTT)","% cell viability ([1]; rat, 24 h, 50 µM) [%]","inhibition ([2]; 500 μM peptide, Ab1-42 in 0.1M Tris pH 7.4, 37° C., read-out: % Inhibition of amyloid fibrils) [%]",inhibition of the fibrillogenesis process (FIG. 1) ([2]; 2 days incubation with 110 μM Aβ1-42 at 37° C.),"IC50 ([2]; ThT fluorescence, Ab1-42 0.5 mg/ml, 37° C., read-out: IC50 (inhibition of Ab1-42 fibril formation)) [µM]","% Inhibition of amyloid fibrils ([2]; 500 μM peptide, Ab1-42 0.5 mg/ml in 0.1M Tris pH 7.4, 37° C.) [%]","peptide concentration above which the % of fibrils reaches a plateau ([2]; FIG. 1, 110 μM Aβ1-42, 37° C.)",peptide concentration at which maximum fibril inhibition is obtained ([2]; fibrillogenesis assay) [mM]
CC[C@H](C)[C@H](NC(=O)[C@H](CCCCN)NC(=O)[C@@H](NC(=O)[C@H](CCC(N)=O)NC(=O)[C@@H](N)CCCNC(=N)N)[C@@H](C)CC)C(=O)N[C@@H](Cc1c[nH]c2ccccc12)C(=O)N[C@@H](Cc1ccccc1)C(=O)N[C@@H](CCC(N)=O)C(=O)N[C@@H](CC(N)=O)C(=O)N[C@@H](CCCNC(=N)N)C(=O)N[C@@H](CCCNC(=N)N)C(=O)N[C@@H](CCSC)C(=O)N[C@@H](CCCCN)C(=O)N[C@@H](Cc1c[nH]c2ccccc12)C(=O)N[C@@H](CCCCN)C(=O)N[C@@H](CCCCN)C(=O)N[C@@H](CC(C)C)C(=O)N1CCC[C@H]1C(=O)N[C@@H](Cc1ccccc1)C(=O)N[C@@H](Cc1ccccc1)C(=O)N[C@@H](CC(=O)O)C(N)=O [SEQ ID NO: 6],higher inhibiting effect on the beta-amyloid cellular toxicity than the beta-sheet breaker itself,166,57,high degree of inhibition,~98,,,
"SEQ ID NO: 5: known beta-sheet breaker BSB1 (WO 01/34631), reference peptide (Ac-LPFFD-NH2) [reference compound]",,,,,,15,does not reach a plateau limit,8
